From patent US7527792B1, “Pharmaceutical composition comprising an anti-cancer and at least a peptide” (Synt : EM, priority 1998, dated 2009)
Values joined by “and” are separate entries in the source; they are usually repeats but may differ in a detail not shown here. Identical values can stand only once. Like-named read-outs stand apart in the source and are kept apart here. Numbered stars: 1 amine (or outer) side, 2 acyl side, 3 side chain; on linkers, the order of the positions; unused ones are H or OH. Peptide text beside a SMILES is read from it. * marks the point of attachment. X1 = COc1cccc2c1C(=O)c1c(O)c3c(c(O)c1C2=O)C[C@@](O)(C(=O)CO)C[C@@H]3O[C@H]1C[C@H](NC(=O)CCN2C(=O)CC(*)C2=O)[C@H](O)[C@H](C)O1; Doxorubicin(3'-N) = COc1cccc2c1C(=O)c1c(O)c3c(c(O)c1C2=O)C[C@@](O)(C(=O)CO)C[C@@H]3O[C@H]1C[C@H](N*)[C@H](O)[C@H](C)O1; Suc = O=C(CCC(=O)[*:2])[*:1]

Experiments:
Assay type in all cases: cell-based, human
resistant K562/ADR cells [1] = assay: Cytotoxicity, MTT test, resistant line; settings: for F. Rev (reversion factor): K562/ADR, effect of the vector on susceptibility, free doxo versus compound; for F. Res (resistance factor): ratio of IC50 values, resistant line K562/ADR versus susceptible K562
Description: (§1) The susceptible K562 chronic myeloid leukaemia cells, resistant K562/ADR cells and HL60/R10 promyeloid leukaemia cells are of human origin and were obtained commercially from the ATCC. The cells are inoculated at a rate of approximately 10^4 cells per well, 24 hours before adding the products. The cells are kept in culture at 37° C. in an atmosphere at 95% humidity and 5% CO2 in an OptiMem medium.
[…] At the end of the culture period, MTT (3-(4,5-dimethylthiazole-2-yl)-2,5-diphenyltetrazolium bromide) is added into the wells and the culture plates are then incubated for 4 hours in the incubator. The resulting crystalline formazan deposit is then dissolved by adding 200 μl of DMF/SDS. The optical density (OD) is measured at 550 nm (reference 630 nm) using a microplate reader.
(§2) The graphic representation of the OD percentages of the wells treated as a function of the concentration of products is used to determine the IC50 which corresponds to the concentration of product that inhibits 50% of growth.
The IC50 values are used to quantify the resistance factor (F. Res) of the resistant lines using the following ratio:
The reversion factor (F. Rev) corresponds to the effect of a modulator (the vector) on the susceptibility of the cells to the anti-tumour agents according to the following ratio:
The susceptibility of the cells to anti-tumour agents was measured using the MTT test under the experimental conditions defined above wherein the relationship between the optical density and the number of viable cells is linear.

[2] = tested on: HL60/R10 promyeloid leukaemia cells; assay: Cytotoxicity, MTT test, HL60/R10
Description: as §1
The susceptible K562 cells and resistant K562/ADR cells are incubated either with free doxorubicin or with doxorubicin in a vector at increasing concentrations after 48 hours in culture in the presence of the products. At the end of the culture period, MTT (3-(4,5-dimethylthiazole-2-yl)-2,5-diphenyltetrazolium bromide) is added into the wells and the culture plates are then incubated for 4 hours in the incubator. The resulting crystalline formazan deposit is then dissolved by adding 200 μl of DMF/SDS. The optical density (OD) is measured at 550 nm (reference 630 nm) using a microplate reader.
as §2
The reversion factor (F. Rev) corresponds to the effect of a modulator (the vector) on the susceptibility of the cells to the anti-tumour agents according to the following ratio: […]

resistant K562/ADR cells [3] = assay: Internalisation by flow cytometry; settings: 3 μM, 30 min incubation at 37° C.
Description: as §1
The susceptible K562 cells and resistant K562/ADR cells are incubated either with free doxorubicin or with doxorubicin in a vector at a concentration of 3 μM. After 30 minutes of incubation at 37° C., the cells are washed three times with PBS. The internalisation of the products is then analysed by flow cytometry. The samples are analysed with a flow cytometer equipped with a 15 mA argon laser. The fluorescence emitted is recorded on a logarithmic scale at (575 NM) nm after an excitation at (488) nm. The fluorescence is measured on 10,000 cells selected according to the […] parameters. The results are expressed as a percentage of positive cells of the fluorescence intensity logarithm. The results are analysed using the software program Cell Quest.
The susceptible K562 cells and resistant K562/ADR cells are incubated either with free doxorubicin or with doxorubicin in the vector. After 30 min of incubation, the internalisation of the products is measured by flow cytometry.

[4] = tested on: susceptible K562 chronic myeloid leukaemia cells; assay: Cytotoxicity, MTT test, susceptible line; settings: 8 μM, 24 hours incubation

Compound | F. Rev (reversion factor) (resistant K562/ADR cells [1]) | F. Res (resistance factor) (resistant K562/ADR cells [1]) | also measured
COc1cccc2c1C(=O)c1c(O)c3c(c(O)c1C2=O)C[C@@](O)(C(=O)CO)C[C@@H]3O[C@H]1C[C@H](NC(=O)CCC(=O)N[C@@H](CCCNC(=N)N)C(=O)NCC(=O)NCC(=O)N[C@@H](CCCNC(=N)N)C(=O)N[C@@H](CC(C)C)C(=O)N[C@@H](CO)C(=O)N[C@@H](Cc2ccc(O)cc2)C(=O)N[C@@H](CO)C(=O)N[C@@H](CCCNC(=N)N)C(=O)N[C@@H](CCCNC(=N)N)C(=O)N[C@@H](CCCNC(=N)N)C(=O)N[C@@H](Cc2ccccc2)C(=O)N[C@@H](CO)C(=O)N[C@H](C(=O)N[C@@H](CO)C(=O)N[C@H](C(=O)NCC(=O)N[C@@H](CCCNC(=N)N)C(=O)O)[C@@H](C)O)[C@@H](C)O)[C@H](O)[C@H](C)O1 [Compound 1, doxo-CO-(CH2)2-CO-RGGRLSYSRRRFSTSTGR] ({Doxorubicin(3'-N)-Suc}-RGGRLSYSRRRFSTSTGR-OH; N-terminus and C-terminus assumed) | 2.5 | 0.7 | –
COc1cccc2c1C(=O)c1c(O)c3c(c(O)c1C2=O)C[C@@](O)(C(=O)CO)C[C@@H]3O[C@H]1C[C@H](NC(=O)CCC(=O)N[C@@H](CCCNC(=N)N)C(=O)NCC(=O)NCC(=O)N[C@@H](CCCNC(=N)N)C(=O)N[C@@H](CC(C)C)C(=O)N[C@@H](CO)C(=O)N[C@@H](Cc2ccc(O)cc2)C(=O)N[C@@H](CO)C(=O)N[C@@H](CCCNC(=N)N)C(=O)N[C@@H](CCCNC(=N)N)C(=O)N[C@@H](CCCNC(=N)N)C(=O)N[C@@H](Cc2ccccc2)C(=O)N[C@@H](CO)C(=O)N[C@H](C(=O)N[C@@H](CO)C(=O)N[C@H](C(=O)NCC(=O)N[C@@H](CCCNC(=N)N)C(=O)O)C(C)C)C(C)C)[C@H](O)[C@H](C)O1 [Compound 2, doxo-CO-(CH2)2-CO-RGGRLSYSRRRFSVSVGR] ({Doxorubicin(3'-N)-Suc}-RGGRLSYSRRRFSVSVGR-OH; N-terminus and C-terminus assumed) | 5 | 0.9 | F. Rev ([2]; HL60/R10): 1.6; IC50 (resistant K562/ADR cells [1]; FIG. 5 experiment, linked versus not linked with peptide, cell line not given, resistant cells implied, read-out: IC50): 19 µM
CC[C@H](C)[C@H](NC(=O)CNC(=O)[C@H](CCCNC(=N)N)NC(=O)[C@H](Cc1ccc(O)cc1)NC(=O)[C@H](CO)NC(=O)[C@@H](NC(=O)[C@H](CCCNC(=N)N)NC(=O)[C@H](Cc1ccccc1)NC(=O)[C@H](CO)NC(=O)[C@H](Cc1c[nH]c2ccccc12)NC(=O)[C@H](CCCCN)NC(=O)CCC(=O)N[C@H]1C[C@H](O[C@H]2C[C@](O)(C(=O)CO)Cc3c(O)c4c(c(O)c32)C(=O)c2c(OC)cccc2C4=O)O[C@@H](C)[C@H]1O)C(C)C)C(=O)N[C@@H](CO)C(=O)N[C@@H](Cc1ccc(O)cc1)C(=O)N[C@@H](CCCNC(=N)N)C(=O)N[C@@H](CCCNC(=N)N)C(=O)N[C@@H](CO)C(=O)N[C@@H](CCCNC(=N)N)C(=O)O [Compound 3, doxo-CO-(CH2)2-CO-KWSFRVSYRGISYRRSR] ({Doxorubicin(3'-N)-Suc}-KWSFRVSYRGISYRRSR-OH; N-terminus and C-terminus assumed) | 43 | 0.8 | –
COc1cccc2c1C(=O)c1c(O)c3c(c(O)c1C2=O)C[C@@](O)(C(=O)CO)C[C@@H]3O[C@H]1C[C@H](NC(=O)CCC(=O)N[C@@H](CCCNC(=N)N)C(=O)N[C@@H](CCCNC(=N)N)C(=O)N[C@@H](CC(C)C)C(=O)N[C@@H](CO)C(=O)N[C@@H](Cc2ccc(O)cc2)C(=O)N[C@@H](CO)C(=O)N[C@@H](CCCNC(=N)N)C(=O)N[C@@H](CCCNC(=N)N)C(=O)N[C@@H](CCCNC(=N)N)C(=O)N[C@@H](Cc2ccccc2)C(=O)O)[C@H](O)[C@H](C)O1 [Compound 4, doxo-CO-(CH2)2-CO-RRLSYSRRRF] ({Doxorubicin(3'-N)-Suc}-RRLSYSRRRF-OH; N-terminus and C-terminus assumed) | 2.8 | 1 | –
CC[C@@H](C)[C@@H](NC(=O)[C@@H](CCCCN)NC(=O)[C@H](NC(=O)[C@@H](CCC(N)=O)NC(=O)[C@@H](CCCNC(=N)N)NC(=O)CCSC1CC(=O)N(CCC(=O)N[C@H]2C[C@H](O[C@H]3C[C@](O)(C(=O)CO)Cc4c(O)c5c(c(O)c43)C(=O)c3c(OC)cccc3C5=O)O[C@@H](C)[C@H]2O)C1=O)[C@H](C)CC)C(=O)N[C@H](Cc1c[nH]c2ccccc12)C(=O)N[C@H](Cc1ccccc1)C(=O)N[C@H](CCC(N)=O)C(=O)N[C@H](CC(N)=O)C(=O)N[C@H](CCCNC(=N)N)C(=O)N[C@H](CCCNC(=N)N)C(=O)N[C@H](CCSC)C(=O)N[C@H](CCCCN)C(=O)N[C@H](Cc1c[nH]c2ccccc12)C(=O)N[C@H](CCCCN)C(=O)N[C@H](CCCCN)C(=O)O (some centres unmarked) [Compound 5, doxo-SMP-3MP-rqikiwfgnrrmkwkk] | 35 | 1.3 | percentage of positive cells (internalisation) (resistant K562/ADR cells [3]): 98%; IC50 (resistant K562/ADR cells [1]; resistant line K562/ADR, MTT, 50% growth inhibition, read-out: IC50 K562/ADR): 2 µM
CC[C@H](C)[C@H](NC(=O)[C@H](CCCCN)NC(=O)[C@@H](NC(=O)[C@H](CC(N)=O)NC(=O)[C@H](CCC(=O)O)NC(=O)[C@@H](N)CSC1CC(=O)N(CCC(=O)N[C@H]2C[C@H](O[C@H]3C[C@](O)(C(=O)CO)Cc4c(O)c5c(c(O)c43)C(=O)c3c(OC)cccc3C5=O)O[C@@H](C)[C@H]2O)C1=O)[C@@H](C)CC)C(=O)N[C@@H](Cc1c[nH]c2ccccc12)C(=O)N[C@@H](CC(C)C)C(=O)N[C@@H](CO)C(=O)N[C@@H](CC(C)C)C(=O)N[C@@H](CCCNC(=N)N)C(=O)N[C@@H](CO)C(=O)N[C@@H](Cc1ccc(O)cc1)C(=O)N[C@@H](CC(C)C)C(=O)N[C@@H](CCCCN)C(=O)N[C@@H](CCCNC(=N)N)C(=O)N[C@@H](CCCNC(=N)N)C(=O)O (some centres unmarked) [Compound 6, doxo-SMP-CENIKIWLSLRSYLKRR] (H-C(X1)ENIKIWLSLRSYLKRR-OH; N-terminus and C-terminus assumed) | 12.8 | 1.1 | –
COc1cccc2c1C(=O)c1c(O)c3c(c(O)c1C2=O)C[C@@](O)(C(=O)CO)C[C@@H]3O[C@H]1C[C@H](NC(=O)CCC(=O)N[C@@H](CCCNC(=N)N)C(=O)NCC(=O)NCC(=O)N[C@@H](CCCNC(=N)N)C(=O)N[C@@H](CC(C)C)C(=O)N[C@@H](C)C(=O)N[C@@H](Cc2ccc(O)cc2)C(=O)N[C@@H](CC(C)C)C(=O)N[C@@H](CCCNC(=N)N)C(=O)N[C@@H](CCCNC(=N)N)C(=O)N[C@@H](CCCNC(=N)N)C(=O)N[C@@H](Cc2c[nH]c3ccccc23)C(=O)N[C@@H](C)C(=O)N[C@H](C(=O)N[C@@H](CC(C)C)C(=O)N[C@H](C(=O)NCC(=O)N[C@@H](CCCNC(=N)N)C(=O)O)C(C)C)C(C)C)[C@H](O)[C@H](C)O1 [Compound 7, doxo-CO-(CH2)2-CO-RGGRLAYLRRRWAVLVGR] ({Doxorubicin(3'-N)-Suc}-RGGRLAYLRRRWAVLVGR-OH; N-terminus and C-terminus assumed) | >26 | 0.85 | –
COc1cccc2c1C(=O)c1c(O)c3c(c(O)c1C2=O)C[C@@](O)(C(=O)CO)C[C@@H]3O[C@H]1C[C@H](N)[C@H](O)[C@H](C)O1 [Free Doxo, doxorubicin, reference compound] | – | – | percentage of positive cells (internalisation) (resistant K562/ADR cells [3]; listed as free doxorubicin): 5.86% and 5.68%; IC50 ([2]; Homo sapiens, HL-60, HL60/R10 doxorubicin-resistant cells, MTT): 40 µM; survival of the cells (resistant K562/ADR cells [1]; K562/ADR resistant cells, 8 μM, 24 hours incubation, MTT): 100%; IC50 (resistant K562/ADR cells [1]; resistant line K562/ADR, MTT, 50% growth inhibition, listed as free doxorubicin, read-out: IC50 K562/ADR): 70 µM; survival of the cells [4]: 15%
